Assay results as given in paper PMC11990898, “Novel Isatin–Chalcone Hybrid Molecules: Design, Synthesis and Anti-Neuroinflammatory Activity Evaluation” (Molecules, 2025).
“And” between values parts separate entries of the source, which are not always exact repeats. Identical values can stand only once.

Experiments:
Format in all cases: cell-based, mouse
[1] = tested on: NO release from LPS-stimulated BV2 cells; experiment: NO release inhibition in LPS-stimulated BV2 cells (Griess method); details: for Nitrite (NO release amount): BV2 cells induced by LPS, Griess test; for Nitrite (NO release amount) / inhibition at 20 µM: compound at 20 μM; for inhibition at 20 µM / IC50: Mus musculus, BV-2, LPS-stimulated BV2 cells; for inhibition at 20 µM: read-out: NO inhibition rate; for IC50: 24 h
Experimental: BV2 cells stimulated by lipopolysaccharide (LPS) lead to an increase in NO release. Therefore, we used the inhibitory ability of the target compounds on NO as a preliminary method to evaluate their anti-neuroinflammatory properties. We evaluated the inhibitory ability of isatin–chalcone hybrid derivatives 4a–t on the release of NO from BV2 cells at 20 μM. The release amount of NO was detected by the Griess method, and the actual release amount of NO was calculated based on the experimental data.
BV2 cells were plated in 96-well microplates at 40,000 cells per well (100 μL/well) and incubated for 24 h. Then, 50 μL of LPS solution with a final concentration of 100 ng/mL and 50 μL of compounds (diluted with medium to a final concentration of 0.31–20 μM) were added, and each concentration had 3 parallel wells. The NO assay kit was used to carry out nitrite assays after 24 h. The 50 μL of culture medium was mixed with the GrisR1 (50 μL) and GrisR2 (50 μL) of the NO assay kit in another new 96-well plate. The absorbance was detected at 540 nm. The percentage of inhibition of NO was obtained from the following formula: [(Rlps − RB − RC)/(Rlps − RB)] × 100, where Rlps is the release amount of only the LPS-treated group, RB is the release amount of the normal control and RC is the release amount of the test compound and LPS-treated group. The IC50 values of test compounds were calculated by linear regression plots.

BV2 microglial cells = experiment: Cell viability assay (MTS) on BV2 cells; details: for IC50: Mus musculus, BV-2, MTS; for IC50 / cell viability: 24 h; for cell viability: compound at 25 μM, MTS
Experimental: (§1) BV2 microglial cells (SCSP-5208, Cell Bank, Chinese Academy of Sciences, Shanghai, China) were incubated in high-glucose DMEM supplemented with 10% fetal bovine serum and 1% penicillin and streptomycin in a humidified atmosphere of 5% CO2 at 37 °C.
(§2) BV2 cells were plated in 96-well microplates at 20,000 cells per well (100 μL/well) and incubated for 24 h. Then, 100 μL of compounds (diluted with medium to a final concentration of 1.56–100 μM) was added, and each concentration had 3 parallel wells. After 24 h, the cell viability was measured by MTS assay. The absorbance was detected at 490 nm. The percentage of viability was obtained from the following formula: ODdrug-treated/ODnormal cells × 100. The IC50 values of test compounds were calculated by linear regression plots.

[2] = Cell viability assay (MTS) on BV2 cells; details: mouse, BV2 microglial cells, MTS
Experimental: as §1, §2

For `CCOC(=O)CN1C(=O)/C(=C/C(=O)c2ccc3ccccc3c2)c2ccccc21` [Compound 4p, Ethyl (E)-2-(3-(2-(naphthalen-2-yl)-2-oxoethylidene)-2-oxoindolin-1-yl)acetate], the “Nitrite (NO release amount)” value [1] was 17.0 ± 0.3 µM.

In the case of `CCOC(=O)CN1C(=O)/C(=C/C(=O)c2ccc(CC)cc2)c2ccccc21` [Compound 4e, Ethyl (E)-2-(3-(2-(4-ethylphenyl)-2-oxoethylidene)-2-oxoindolin-1-yl)acetate], the “Nitrite (NO release amount)” value [1] is reported as 15.2 ± 0.3 µM.

`CCOC(=O)CN1C(=O)/C(=C/C(=O)c2cc(OC)c(OC)c(OC)c2)c2cc(I)ccc21` [Compound 9d, Ethyl (E)-2-(5-iodo-2-oxo-3-(2-oxo-2-(3,4,5-trimethoxyphenyl)ethylidene)indolin-1-yl)acetate] showed an inhibition at 20 µM [1] of 22%.

For `CCOC(=O)CN1C(=O)/C(=C/C(=O)c2ccc(Cl)cc2)c2ccccc21` [Compound 4l, Ethyl (E)-2-(3-(2-(4-chlorophenyl)-2-oxoethylidene)-2-oxoindolin-1-yl)acetate], the “Nitrite (NO release amount)” value [1] was 17.5 ± 0.3 µM.

For `CCOC(=O)CN1C(=O)/C(=C/C(=O)c2ccc(OC)cc2)c2ccccc21` [Compound 4h, Ethyl (E)-2-(3-(2-(4-methoxyphenyl)-2-oxoethylidene)-2-oxoindolin-1-yl)acetate], the “Nitrite (NO release amount)” value [1] was 20.6 ± 0.6 µM.

With `CCCCCCCCCCCOC(=O)CN1C(=O)/C(=C/C(=O)c2cc(OC)c(OC)c(OC)c2)c2ccccc21` [Compound 5c, Undecyl (E)-2-(2-oxo-3-(2-oxo-2-(3,4,5-trimethoxyphenyl)ethylidene)indolin-1-yl)acetate] the IC50 (BV2 microglial cells) was 19.8 µM and the IC50 [1] was 6.3 µM.

For `COC(=O)CN1C(=O)/C(=C/C(=O)c2cc(OC)c(OC)c(OC)c2)c2ccccc21` [Compound 5a, Methyl (E)-2-(2-oxo-3-(2-oxo-2-(3,4,5-trimethoxyphenyl)ethylidene)indolin-1-yl)acetate], the IC50 (BV2 microglial cells) was 78.6 µM and the IC50 [1] was 10.9 µM.

In the case of `O=C1Nc2ccccc2C1=O` [Isatin, 1H-indole-2,3-dione], the “Nitrite (NO release amount)” value [1] is reported as 20.8 ± 0.9 µM.

In the case of `CCOC(=O)CN1C(=O)/C(=C/C(C)=O)c2ccccc21` [Compound 4a, Ethyl (E)-2-(2-oxo-3-(2-oxopropylidene)indolin-1-yl)acetate], the “Nitrite (NO release amount)” value [1] is reported as 22.9 µM and 22.9 ± 0.5 µM.

In the case of `CCOC(=O)CN1C(=O)/C(=C/C(=O)c2ccc(Br)cc2)c2ccccc21` [Compound 4m, Ethyl (E)-2-(3-(2-(4-bromophenyl)-2-oxoethylidene)-2-oxoindolin-1-yl)acetate], the “Nitrite (NO release amount)” value [1] is reported as 18.6 ± 0.3 µM.

For `CCOC(=O)CN1C(=O)/C(=C/C(=O)c2ccc(F)cc2)c2ccccc21` [Compound 4k, Ethyl (E)-2-(3-(2-(4-fluorophenyl)-2-oxoethylidene)-2-oxoindolin-1-yl)acetate], the “Nitrite (NO release amount)” value [1] was 15.2 ± 0.2 µM.

In the case of `CCOC(=O)CN1C(=O)/C(=C/C(=O)c2ccco2)c2ccccc21` [Compound 4q, Ethyl (E)-2-(3-(2-(furan-2-yl)-2-oxoethylidene)-2-oxoindolin-1-yl)acetate], the cell viability (BV2 microglial cells) is reported as “nearly non-cytotoxic”, the “Nitrite (NO release amount)” value [1] is reported as 20.2 ± 0.4 µM and the inhibition at 20 µM [1] is reported as 30%.

With `CCOC(=O)CN1C(=O)/C(=C/C(=O)c2ccccn2)c2ccccc21` [Compound 4s, Ethyl (E)-2-(2-oxo-3-(2-oxo-2-(pyridin-2-yl)ethylidene)indolin-1-yl)acetate] the cell viability (BV2 microglial cells) was “nearly non-cytotoxic” and the “Nitrite (NO release amount)” value [1] was 11.1 ± 0.4 µM.

`CCOC(=O)CN1C(=O)/C(=C/C(=O)c2cc(OC)c(OC)c(OC)c2)c2cc(OC)ccc21` [Compound 9f, Ethyl (E)-2-(5-methoxy-2-oxo-3-(2-oxo-2-(3,4,5-trimethoxyphenyl)ethylidene)indolin-1-yl)acetate] gave an IC50 (BV2 microglial cells) of 78.1 µM, an IC50 [1] of 10.4 µM and an inhibition at 20 µM [1] of 68%.

For `CCOC(=O)CN1C(=O)/C(=C/C(=O)C2CC2)c2ccccc21` [Compound 4t, Ethyl (E)-2-(3-(2-cyclopropyl-2-oxoethylidene)-2-oxoindolin-1-yl)acetate], the “Nitrite (NO release amount)” value [1] was 16.7 ± 0.2 µM.

In the case of `CCOC(=O)CN1C(=O)/C(=C/C(=O)c2ccc[nH]2)c2ccccc21` [Compound 4r, Ethyl (E)-2-(2-oxo-3-(2-oxo-2-(1H-pyrrol-2-yl)ethylidene)indolin-1-yl)acetate], the “Nitrite (NO release amount)” value [1] is reported as 20.5 ± 0.6 µM and the inhibition at 20 µM [1] is reported as 28%.

In the case of `CCOC(=O)CN1C(=O)/C(=C/C(=O)c2ccc([N+](=O)[O-])cc2)c2ccccc21` [Compound 4n, Ethyl (E)-2-(3-(2-(4-nitrophenyl)-2-oxoethylidene)-2-oxoindolin-1-yl)acetate], the “Nitrite (NO release amount)” value [1] is reported as 16.7 ± 0.3 µM.

In the case of `CCOC(=O)CN1C(=O)/C(=C/C(=O)c2ccc(-c3ccccc3)cc2)c2ccccc21` [Compound 4o, Ethyl (E)-2-(3-(2-([1,1′-biphenyl]-4-yl)-2-oxoethylidene)-2-oxoindolin-1-yl)acetate], the cell viability (BV2 microglial cells) is reported as “nearly non-cytotoxic” and the “Nitrite (NO release amount)” value [1] is reported as 19.0 ± 0.4 µM.

For `CCOC(=O)CN1C(=O)/C(=C/C(=O)c2ccccc2)c2ccccc21` [Compound 4c, Ethyl (E)-2-(2-oxo-3-(2-oxo-2-phenylethylidene)indolin-1-yl)acetate], the “Nitrite (NO release amount)” value [1] was 19.3 ± 0.5 µM.

In the case of `CCOC(=O)CN1C(=O)/C(=C/C(=O)c2ccc(OCC)cc2)c2ccccc21` [Compound 4i, Ethyl (E)-2-(3-(2-(4-ethoxyphenyl)-2-oxoethylidene)-2-oxoindolin-1-yl)acetate], the “Nitrite (NO release amount)” value [1] is reported as 15.3 ± 0.3 µM.

Compound `CCCCCCCOC(=O)CN1C(=O)/C(=C/C(=O)c2cc(OC)c(OC)c(OC)c2)c2ccccc21` [Compound 5b, Heptyl (E)-2-(2-oxo-3-(2-oxo-2-(3,4,5-trimethoxyphenyl)ethylidene)indolin-1-yl)acetate] has an IC50 (BV2 microglial cells) of 45.3 µM and an IC50 [1] of 15.8 µM.

In the case of `CCOC(=O)CN1C(=O)/C(=C/C(=O)c2ccc(C(C)C)cc2)c2ccccc21` [Compound 4f, Ethyl (E)-2-(3-(2-(4-isopropylphenyl)-2-oxoethylidene)-2-oxoindolin-1-yl)acetate], the cell viability (BV2 microglial cells) is reported as “nearly non-cytotoxic” and the “Nitrite (NO release amount)” value [1] is reported as 17.1 ± 0.3 µM.

For `CCCCCc1ccc(C(=O)/C=C2/C(=O)N(CC(=O)OCC)c3ccccc32)cc1` [Compound 4g, Ethyl (E)-2-(2-oxo-3-(2-oxo-2-(4-pentylphenyl)ethylidene)indolin-1-yl)acetate], the IC50 (BV2 microglial cells) was 30.1 µM, the cytotoxicity (BV2 microglial cells; under the concentration of 12.5 μM) was “did not show obvious cytotoxicity” and the viability at 24 h, 3.1 µM ([2]; compound at 3.1 μM, read-out: cell viability (cell survival rate)) was 98.4%. It also gave a viability at 24 h, 6.3 μM ([2]; compound at 6.3 μM (printed 6.23 μM for 4b), read-out: cell viability (cell survival rate)) of 95.1%, a viability at 24 h, 12.5 µM ([2]; compound at 12.5 μM) of 83.9% and a viability at 24 h, 25 µM ([2]; compound at 25 μM, 24 h) of 42%. For the same compound, the “Nitrite (NO release amount)” value [1] was 8.5 ± 0.1 µM, the IC50 [1] was 10.8 µM and the inhibition at 20 µM [1] was 73%.

`COc1cc(C(=O)/C=C2/C(=O)N(CC(=O)OCCc3ccccc3)c3ccccc32)cc(OC)c1OC` [Compound 5f, Phenethyl (E)-2-(2-oxo-3-(2-oxo-2-(3,4,5-trimethoxyphenyl)ethylidene)indolin-1-yl)acetate] gave an IC50 (BV2 microglial cells) of 42.7 µM and an IC50 [1] of 10.7 µM.

For `CCOC(=O)CN1C(=O)/C(=C/C(=O)c2ccc(C)cc2)c2ccccc21` [Compound 4d, Ethyl (E)-2-(2-oxo-3-(2-oxo-2-(p-tolyl)ethylidene)indolin-1-yl)acetate], the “Nitrite (NO release amount)” value [1] was 12.5 ± 0.2 µM.
